In brackets after ≈: the same amount, converted by molar mass. Like-named read-outs stand apart in the source and are kept apart here.
Legend:
[1] = system: Staphylococcus aureus UC 1 061 (penicillin sensible); assay: MIC, dilution method in liquid media, Staphylococcus aureus UC 1061, penicillin sensible; assay type: cell-based
Description: (§1) A series of tubes were prepared with the same quantity of sterile nutrive media and increasing quantities of the test product was distributed to each tube. Then, each tube was seeded with a bacterial strain and after incubation at 37° C for 24 or 48 hours, the inhibition of the growth was determined by transillumination which permitted determination of the minimum inhibitory concentrations (M.I.C.) in μg/ml.

[2] = system: Staphylococcus aureus UC 1128 (penicillin resistant); assay: MIC, dilution method in liquid media, Staphylococcus aureus UC 1128, penicillin resistant; assay type: cell-based
Description: as §1

[3] = system: Streptococcus hemolyticus; assay: MIC, dilution method in liquid media, Streptococcus hemolyticus; assay type: cell-based; conditions: Streptococcus pyogenes
Description: as §1

[4] = system: Streptococcus faecalis 5 432; assay: MIC, dilution method in liquid media, Streptococcus faecalis 5 432; assay type: cell-based
Description: as §1

Bacillus subtilis = assay: MIC, dilution method in liquid media, Bacillus subtilis; assay type: cell-based
Description: as §1

[5] = system: Escherichia Coli UC 1 020; assay: MIC, dilution method in liquid media, Escherichia Coli UC 1 020; assay type: cell-based
Description: as §1

[6] = system: Escherichia Coli UC 1 261; assay: MIC, dilution method in liquid media, Escherichia Coli UC 1 261; assay type: cell-based
Description: as §1

[7] = system: Klebsiella pneumoniae 52 145; assay: MIC, dilution method in liquid media, Klebsiella pneumoniae 52 145; assay type: cell-based; conditions: read-out: MIC
Description: as §1

[8] = system: Proteus mirabilis (indol); assay: MIC, dilution method in liquid media, Proteus mirabilis (indol); assay type: cell-based
Description: as §1

[9] = system: Staphylococcus aureus 54 146; assay: MIC, dilution method in liquid media, Staphylococcus aureus 54 146; assay type: cell-based; conditions: read-out: MIC
Description: as §1

[10] = system: Escherichia Coli (T) 0 26 B 6; assay: MIC, dilution method in liquid media, Escherichia Coli (T) 026 B6; assay type: cell-based
Description: as §1

[11] = system: staphylococcus aureus 54,146; assay: In vivo activity, experimental staphylococcia in mice; conditions: for Mice living after 8th day: subcutaneous, 1, 5 and 24 hours after infection
Description: The antibacterial activity of the compound of Example 2 was determined against experimental staphylococcia in mice. Lots of 10 male mice weighing about 21.5 g were infected by intraperitoneal injection of 0.5 ml of a 24 hour culture of staphylococcus aureus 54,146 in Pasteur nutritive broth diluted by 1/5 with distilled water. The test product was administered subcutaneously 1 hour, 5 hours and 24 hours after the infection in different doses.

[12] = system: Proteus mirabilis No. A 235; assay: In vivo activity, experimental infection of Proteus mirabilis in mice; conditions: for Mice living on 8th day: subcutaneous, 1, 5 and 24 hours after infection, controls 0/10; for Mortality after 21 h 15: subcutaneous, number of dead of 10 mice, controls 10
Description: The product of Example 2 was studied for its effect on an experimental infection of Proteus mirabilis in mice. Groups of 10 male mice weighing about 22.5 g were infected by an intraperitoneal injection of 0.5 ml of a 24 hour culture in Pasteur nutritive media of Proteus mirabilis No. A 235 diluted by 1/4 with distilled water.
The mice received a subcutaneous injection 1 hour, 5 hours and 24 hours after the infection of a quantity of the product of Example 2 and the mortality was noted during 8 days.

[13] = system: Escherichia Coli (T) 026B6; assay: Experimental infection with Escherichia Coli (T) 026B6 in mice; assay type: in vivo; conditions: for Mice living on 8th day: subcutaneous, 1, 5 and 24 hours after infection, control 0/10
Description: Again, the activity of the product of Example 2 was tested against experimental infection of Escherichia Coli in mice. Groups of 10 male mice weighing about 23 g were infected with an intraperitoneal injection of 0.5 ml of a 24 hour culture in Pasteur nutritive media of Escherichia Coli (T) 026B6 diluted by 1/6 with distilled water. The test product was administered subcutaneously one hour, five hours and 24 hours after the infection and the mortality was determined during 8 days.

[14] = system: Streptococcus pyogenes A 561; assay: MIC, dilution method in liquid media, Streptococcus pyogenes A 561; assay type: cell-based
Description: as §1

[15] = system: Escherichia Coli R 55 123 D; assay: MIC, dilution method in liquid media, Escherichia Coli R 55 123 D; assay type: cell-based; conditions: COLIR55123D
Description: as §1

Salmonella Typhimurium = assay: MIC, dilution method in liquid media, Salmonella Typhimurium; assay type: cell-based; conditions: Salmonella enterica, strain 420 (Tables II, IV)
Description: as §1

[16] = Enterococcus faecalis, 5432, 24 h, read-out: MIC
[17] = Klebsiella pneumoniae, 52145, 24 h
[18] = Klebsiella pneumoniae, 52145, 48 h
[19] = Staphylococcus aureus, 54146, 24 h
[20] = Staphylococcus aureus, 54146, 48 h
[21] = 0.1 mg in each injection, subcutaneous, number of dead of 10 mice
[22] = 0.25 mg in each injection, subcutaneous, number of dead of 10 mice
[23] = 0.5 mg in each injection, subcutaneous, number of dead of 10 mice

CC(=O)SCC1=C(C(=O)O)N2C(=O)C(NC(=O)Cc3csc(N)n3)[C@H]2SC1 (some centres unmarked) [Example 2, 7-[2-(2-amino-4-thiazolyl)-acetamido]-3-acetylthiomethyl-ceph-3-eme-4-carboxylic acid]
MIC ([1]; 24 H, Staphylococcus Oxford UC 1061, penicillin sensible): 0.5 µg/mL (≈ 1.17 µM)
MIC ([1]; 48 H, Staphylococcus Oxford UC 1061, penicillin sensible): 0.5 µg/mL (≈ 1.17 µM)
MIC ([2]; UC1128, 24 H): 1 µg/mL (≈ 2.33 µM)
MIC ([2]; UC1128, 48 H): 1 µg/mL (≈ 2.33 µM)
MIC ([3]; 24 h): 0.05 µg/mL (≈ 0.117 µM)
MIC ([3]; 48 H, in bacto Todd Hewitt Broth pH = 7.8, read-out: MIC): 0.1 µg/mL (≈ 0.233 µM)
MIC [4, 16]: 5 µg/mL (≈ 11.7 µM)
MIC ([4]; Enterococcus faecalis, 5432, 48 h, read-out: MIC): > 40 µg/mL
MIC (Bacillus subtilis; 24 h, read-out: MIC): 0.1 µg/mL (≈ 0.233 µM)
MIC (Bacillus subtilis; 48 h, read-out: MIC): 0.5 µg/mL (≈ 1.17 µM)
MIC ([5]; UC1, 24 h, read-out: MIC): 2 µg/mL (≈ 4.67 µM)
MIC ([5]; UC1, 48 h, read-out: MIC): 5 µg/mL (≈ 11.7 µM)
MIC ([6]; UC1, 24 h): 1 µg/mL (≈ 2.33 µM)
MIC ([6]; UC1, 48 h): 1 µg/mL (≈ 2.33 µM)
MIC [7, 17]: 0.5 µg/mL (≈ 1.17 µM)
MIC [7, 18]: 0.5 µg/mL (≈ 1.17 µM)
MIC ([8]; 24 h, read-out: MIC): 1 µg/mL (≈ 2.33 µM)
MIC ([8]; 48 h, read-out: MIC): 1 µg/mL (≈ 2.33 µM)
MIC [9, 19]: 0.6 µg/mL (≈ 1.4 µM)
MIC [9, 20]: 0.6 µg/mL (≈ 1.4 µM)
MIC ([10]; 24 h): 3 µg/mL (≈ 7 µM)
MIC ([10]; 48 h): 3 µg/mL (≈ 7 µM)
Mice living after 8th day ([11]; 0.1 mg in each injection): 0/10
Mortality after 9 h 45 [11, 21]: 1
Mortality after 22 h 30 [11, 21]: 8
Mortality after 29 h [11, 21]: 1
Mice living after 8th day ([11]; 0.25 mg in each injection): 6/10
Mortality after 22 h 30 [11, 22]: 1
Mortality after 25 h 30 [11, 22]: 1
Mortality after 4 d [11, 22]: 1
Mortality after 5 d [11, 22]: 1
Mice living after 8th day ([11]; 0.5 mg in each injection): 9/10
Mortality after 4 d [11, 23]: 1
Mice living after 8th day ([11]; 0.75 mg in each injection): 10/10
Mice living after 8th day ([11]; 1 mg in each injection): 10/10
Mice living on 8th day ([12]; 0.1 mg in each injection): 8/10
Mortality after 21 h 15 ([12]; 0.1 mg in each injection): 2
Mice living on 8th day ([12]; 0.25 mg in each injection): 10/10
Mortality after 21 h 15 ([12]; 0.25 mg in each injection): 0
Mice living on 8th day ([12]; 0.5 mg in each injection): 10/10
Mortality after 21 h 15 ([12]; 0.5 mg in each injection): 0
Mice living on 8th day ([12]; 0.75 mg in each injection): 10/10
Mortality after 21 h 15 ([12]; 0.75 mg in each injection): 0
Mice living on 8th day ([13]; 0.5 mg in each injection): 0/10
Mortality at 21 h 15 [13, 23]: 6
Mortality at 24 h 15 [13, 23]: 1
Mortality at 27 h 45 [13, 23]: 1
Mortality at 45 h 30 [13, 23]: 1
Mortality at 70 h [13, 23]: 1
Mice living on 8th day ([13]; 1 mg in each injection): 9/10
Mortality at 30 h 45 ([13]; 1 mg in each injection, subcutaneous, number of dead of 10 mice): 1

Nc1nc(CC(=O)NC2C(=O)N3C(C(=O)O)=C(CSC(=O)c4csc(=O)[nH]4)CSC23)cs1 (centres unmarked) [Example 4, 7-[2-(2-amino-4-thiazolyl)-acetamido]-3-[{(2-oxo-(3H)-thiazolin-4-yl)-carbonyl}-thiomethyl]-ceph-3-eme-4-carboxylic acid]
MIC ([1]; UC1, 24 H, penicillin sensible): 0.2 µg/mL (≈ 0.389 µM)
MIC ([1]; UC1, 48 H, penicillin sensible): 0.5 µg/mL (≈ 0.974 µM)
MIC ([2]; UC1128, 24 H): 1 µg/mL (≈ 1.95 µM)
MIC ([2]; UC1128, 48 H): 1 µg/mL (≈ 1.95 µM)
MIC [4, 16]: 10 µg/mL (≈ 19.5 µM)
MIC ([4]; Enterococcus faecalis, 5432, 48 h): > 40 µg/mL
MIC (Bacillus subtilis; 24 h, read-out: MIC): 0.1 µg/mL (≈ 0.195 µM)
MIC (Bacillus subtilis; 48 h): 0.1 µg/mL (≈ 0.195 µM)
MIC ([5]; UC1, 24 h): 2 µg/mL (≈ 3.89 µM)
MIC ([5]; UC1, 48 h): 2 µg/mL (≈ 3.89 µM)
MIC ([6]; UC1, 24 h, read-out: MIC): 1 µg/mL (≈ 1.95 µM)
MIC ([6]; UC1, 48 h, read-out: MIC): 1 µg/mL (≈ 1.95 µM)
MIC [7, 17]: 0.1 µg/mL (≈ 0.195 µM)
MIC [7, 18]: 0.2 µg/mL (≈ 0.389 µM)
MIC ([8]; 24 H, A 235, read-out: MIC): 0.6 µg/mL (≈ 1.17 µM)
MIC ([8]; 48 H, A 235, read-out: MIC): 0.6 µg/mL (≈ 1.17 µM)
MIC [9, 19]: 0.5 µg/mL (≈ 0.974 µM)
MIC [9, 20]: 1 µg/mL (≈ 1.95 µM)
MIC ([10]; 24 h): 2 µg/mL (≈ 3.89 µM)
MIC ([10]; 48 h): 3 µg/mL (≈ 5.84 µM)
MIC ([14]; A561, 24 h): 0.1 µg/mL (≈ 0.195 µM)
MIC ([14]; A561, 48 h): 0.2 µg/mL (≈ 0.389 µM)
MIC ([15]; 24 h): 5 µg/mL (≈ 9.74 µM)
MIC ([15]; 48 h, read-out: MIC): 10 µg/mL (≈ 19.5 µM)
MIC (Salmonella Typhimurium; 24 H): 3 µg/mL (≈ 5.84 µM)
MIC (Salmonella Typhimurium; 48 H): 3 µg/mL (≈ 5.84 µM)
